What was measured:
[1] = molecular target: farnesyl protein transferase (FPTase) (Homo sapiens, UniProt P49354+P49356); assay: In vitro assay for inhibition of farnesyl protein transferase; type: biochemical; conditions: essentially as described in WO 98/40383, pages 33-34, read-out: IC50 FPTase inhibitory activity
Description: In Vitro Assay for Inhibition of Farnesyl Protein Transferase
An in vitro assay for inhibition of farnesyl protein transferase was performed essentially as described in WO 98/40383, pages 33-34.

`Cn1cncc1C(N)(c1ccc(Cl)cc1)c1ccc2c(c1)c(-c1cccc(Cl)c1)nc1nnnn12` (racemic) [parent enantiomeric mixture, (±)-5-(3-chlorophenyl)-α-(4-chlorophenyl)-α-(1-methyl-1H-imidazol-5-yl)tetrazolo[1,5-a]quinazoline-7-methanamine, reference compound] showed an IC50 [1] of 1100 pM.
`Cn1cncc1C(N)(c1ccc(Cl)cc1)c1ccc2c(c1)c(-c1cccc(Cl)c1)nc1nnnn12` (single isomer, unassigned; (-)) [(−) enantiomer, (−)-5-(3-chlorophenyl)-α-(4-chlorophenyl)-α-(1-methyl-1H-imidazol-5-yl)tetrazolo[1,5-a]quinazoline-7-methanamine] showed an IC50 [1] of 700 pM and a melting point of 178 to 180 °C.

— patent US8318753B2, “Farnesyl transferase inhibiting 1,2-annelated quinoline enantiomer” (Janssen Pharmaceutica NV, priority 2000, dated 2012)
